Results on 1 molecule are retold here after publication PMC3930709, “Selective Activation of hTRPV1 by N-Geranyl Cyclopropylcarboxamide, an Amiloride-Insensitive Salt Taste Enhancer” (PLoS ONE, 2014).

The term EC50 denotes the concentration giving half of the maximal effect. Read a high EC50 as a less potent agent.

One assay addresses T1, mASIC1a (Mus musculus, UniProt Q6NXK8).
T1 construct: expressed in transfected cells; host or cells: HEK293T (cDNA gift from John A. Wemmie, University of Iowa)
T1 sequence (Q6NXK8 1-526): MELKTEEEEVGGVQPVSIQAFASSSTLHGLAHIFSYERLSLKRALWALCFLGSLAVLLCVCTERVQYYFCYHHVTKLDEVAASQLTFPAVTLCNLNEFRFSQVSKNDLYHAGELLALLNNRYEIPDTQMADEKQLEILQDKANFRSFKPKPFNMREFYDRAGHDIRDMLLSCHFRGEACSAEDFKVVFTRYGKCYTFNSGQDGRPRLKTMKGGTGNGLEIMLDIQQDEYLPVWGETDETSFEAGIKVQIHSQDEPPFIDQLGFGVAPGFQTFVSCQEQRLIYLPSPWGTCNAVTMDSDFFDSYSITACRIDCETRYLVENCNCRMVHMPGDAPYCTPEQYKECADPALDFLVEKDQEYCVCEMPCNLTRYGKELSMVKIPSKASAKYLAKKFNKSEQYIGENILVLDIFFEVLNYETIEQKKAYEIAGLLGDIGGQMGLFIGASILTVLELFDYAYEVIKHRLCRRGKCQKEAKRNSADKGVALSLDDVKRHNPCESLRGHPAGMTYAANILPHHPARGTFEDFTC
Briefly: Whole-cell patch clamp recording, mASIC1a-expressing HEK293T cells. The format is cell-based. The conditions noted are these: NGCC 1 mM; holding -70 mV; n = 5. The protocol: (§1) Mouse ASIC1a (mASIC1a) was a kind gift from John A. Wemmie (University of Iowa, IA, USA). For electrophysiological experiments, HEK293T cells were cultured in DMEM supplemented with 10% FBS and 0.2% penicillin/streptomycin and transiently transfected using Lipofectamine 2000 (Invitrogen) with various cDNAs. For TRPV1 channel expression, cells were transfected with hTRPV1, for ASIC1a homomeric channel expression, cells were transfected with mASIC1a. When needed, 0.1–0.2 µg of cDNA encoding tetrameric red fluorescence protein (DsRed) was co-transfected with the cDNA as a marker for successfully transfected cells. For non-transfected cells, cells were transfected with 0.1–0.2 µg of cDNA encoding DsRed alone. The next day, cells were plated onto poly-L-lysine-coated coverslip chips, and fluorescent cells were studied within 1–2 days.
The whole-cell configuration was used to voltage-clamp at room temperature (22–25°C). Electrodes pulled from glass micropipette capillaries (Sutter Instrument) had resistances of 2–2.5 MΩ, and series resistance errors were compensated >60%. Fast and slow capacitances were compensated before the application of test-pulse. Recordings were performed using aHEKAEPC-10 amplifier with pulse software (HEKA Elektronik). […] TRPV1 and TRPA1 currents were recorded by holding the cell at −80 mV. […] ASIC currents were recorded by holding the cell at −70 mV. […]
On the technique in general: Patch clamp records ionic current or voltage across a cell membrane.

Assay [1] concerns the target T2, hTRPV1 (Homo sapiens, UniProt Q8NER1).
T2 construct: expressed in transfected cells; host or cells: HEK293T
Briefly: Whole-cell patch clamp recording, hTRPV1-expressing HEK293T cells. It counts as cell-based. The conditions noted are these: capsaicin 100 nM; NGCC 10^3 µM; holding -80 mV. The protocol:
as §1
(§2) The whole-cell configuration was used to voltage-clamp at room temperature (22–25°C). Electrodes pulled from glass micropipette capillaries (Sutter Instrument) had resistances of 2–2.5 MΩ, and series resistance errors were compensated >60%. Fast and slow capacitances were compensated before the application of test-pulse. Recordings were performed using aHEKAEPC-10 amplifier with pulse software (HEKA Elektronik). The pipette solution contained: 140 mM KCl, 5 mM MgCl2, 10 mM HEPES, 0.1 mM 1,2-bis(2-aminophenoxy) ethane N,N,N’,N’-tetraacetic acid(BAPTA), 3 mM Na2ATP, and 0.1 mM Na3GTP, adjusted to pH 7.4 with KOH. The external Ringer’s solution used for recording TRPV1 and TRPA1 currents contained: 150 mM NaCl, 5 mM KCl, 1 mM MgCl2, 2 mM EGTA, 10 mM Glucose, and 10 mM HEPES, adjusted to pH 7.4 with NaOH. TRPV1 and TRPA1 currents were recorded by holding the cell at −80 mV. The external Ringer’s solution used for recording ASIC current contained: 160 mM NaCl, 5 mM KCl, 1 mM MgCl2, 2 mM CaCl2, and 10 mM HEPES, adjusted to pH 7.4 with tetramethylammonium hydroxide. For acidic solution of pH 6.0, HEPES was replaced with MES. ASIC currents were recorded by holding the cell at −70 mV. Reagents were obtained as follows: BAPTA, Na2ATP, Na3GTP, EGTA, and tetramethylammonium hydroxide (Sigma), HEPES (Calbiochem), MES (Alfa Aesar), and other chemicals (Merck).

The next assay has as its system NaCl taste perception. On the set-up: method as in PMID 23221408. Conditions: NGCC 5 and 10 µM; cited from earlier work.
Assay [2] deals with T2, hTRPV1. Briefly: Measurement of Ca2+ influx (Fluo-4 AM, FlexStation III) in hTRPV1-expressing cells. The format is cell-based. The protocol:
hTRPV1 was constructed by amplification of the hTRPV1 region (NCBI accession number: NG_029716.1) and cloned into pEAK10 vector (Edge Biosystems, Gaithersburg, MD, USA). The hTRPV1 construct was amplified by PCR and the nucleotide sequence of the hTRPV1 gene was confirmed by sequencing with an ABI 3130 DNA genetic analyzer (Applied Biosystems, Foster City, CA, USA). […] After 6 h, transfected cells were seeded onto 96-well black-wall plate (BD Falcon Labware, Franklin Lakes, NJ, USA) for 18–26 h prior to their use in an experiment. The ligand-induced changes on cytosolic Ca^2+ level were monitored by a FlexStation III microplate reader (Molecular Devices). Fluo-4 AM (5 µM, Molecular Probes, Eugene, OR, USA) in assay buffer was loaded to the cells in 96-well black-wall plates for 30 min at 27°C. After dye treatment, each chemical was added to each well at 17 s and changes on intracellular Ca^2+ level were monitored by relative fluorescence units (ΔRFU, Ex = 485 nm; Em = 516 nm) for 120 s. […] The responses from at least three wells receiving the same stimulus were averaged. Plots of amplitude versus concentration were fitted using the Hill equation.

Another assay has as its target T3, hTRPA1 (Homo sapiens, UniProt O75762).
T3 construct: expressed in transfected cells
Briefly: Whole-cell patch clamp recording, cells stably expressing hTRPA1. The conditions noted are these: NGCC 10^3 µM. The format is cell-based. The protocol: Flp-In 293 cell lines stably expressing hTRPA1constructed as previously reported was a gift from the professor Takumi Misaka at University of Tokyo. The hTRPA1-expressing cells were cultured in DMEM containing 10% FBS and 0.02% hygromycin B (Invitrogen). Flp-In 293 cell lines were maintained in DMEM containing 10% FBS. All cells were incubated at 37°C in a humidified atmosphere of 5% CO2.
as §2

Several values for one entry are separate records, joined by “and”; a condition that tells them apart may be missing. Equal entries are not always repeated.

T2 sequence (Q8NER1 whole entry): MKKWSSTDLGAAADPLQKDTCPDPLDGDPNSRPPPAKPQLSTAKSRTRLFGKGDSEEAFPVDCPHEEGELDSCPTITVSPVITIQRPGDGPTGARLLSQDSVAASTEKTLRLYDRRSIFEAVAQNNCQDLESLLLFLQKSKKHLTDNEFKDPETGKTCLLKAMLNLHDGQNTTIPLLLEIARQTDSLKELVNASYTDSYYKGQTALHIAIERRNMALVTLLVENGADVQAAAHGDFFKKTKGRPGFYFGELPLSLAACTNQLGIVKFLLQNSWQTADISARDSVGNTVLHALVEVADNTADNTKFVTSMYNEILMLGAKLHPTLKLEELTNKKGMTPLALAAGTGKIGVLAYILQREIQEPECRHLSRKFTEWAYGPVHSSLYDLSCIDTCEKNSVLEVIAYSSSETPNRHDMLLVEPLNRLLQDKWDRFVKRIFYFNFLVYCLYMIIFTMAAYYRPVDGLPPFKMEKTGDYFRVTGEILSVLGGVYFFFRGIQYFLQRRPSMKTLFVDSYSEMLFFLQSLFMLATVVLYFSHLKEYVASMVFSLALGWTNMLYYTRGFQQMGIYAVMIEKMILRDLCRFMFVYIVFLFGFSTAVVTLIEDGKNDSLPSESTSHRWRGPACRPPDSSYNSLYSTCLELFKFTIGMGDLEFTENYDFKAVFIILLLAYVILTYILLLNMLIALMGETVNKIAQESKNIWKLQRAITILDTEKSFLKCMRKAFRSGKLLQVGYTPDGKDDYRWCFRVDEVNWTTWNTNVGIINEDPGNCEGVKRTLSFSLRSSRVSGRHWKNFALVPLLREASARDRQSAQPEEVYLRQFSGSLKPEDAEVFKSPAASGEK
T3 sequence (O75762 whole entry): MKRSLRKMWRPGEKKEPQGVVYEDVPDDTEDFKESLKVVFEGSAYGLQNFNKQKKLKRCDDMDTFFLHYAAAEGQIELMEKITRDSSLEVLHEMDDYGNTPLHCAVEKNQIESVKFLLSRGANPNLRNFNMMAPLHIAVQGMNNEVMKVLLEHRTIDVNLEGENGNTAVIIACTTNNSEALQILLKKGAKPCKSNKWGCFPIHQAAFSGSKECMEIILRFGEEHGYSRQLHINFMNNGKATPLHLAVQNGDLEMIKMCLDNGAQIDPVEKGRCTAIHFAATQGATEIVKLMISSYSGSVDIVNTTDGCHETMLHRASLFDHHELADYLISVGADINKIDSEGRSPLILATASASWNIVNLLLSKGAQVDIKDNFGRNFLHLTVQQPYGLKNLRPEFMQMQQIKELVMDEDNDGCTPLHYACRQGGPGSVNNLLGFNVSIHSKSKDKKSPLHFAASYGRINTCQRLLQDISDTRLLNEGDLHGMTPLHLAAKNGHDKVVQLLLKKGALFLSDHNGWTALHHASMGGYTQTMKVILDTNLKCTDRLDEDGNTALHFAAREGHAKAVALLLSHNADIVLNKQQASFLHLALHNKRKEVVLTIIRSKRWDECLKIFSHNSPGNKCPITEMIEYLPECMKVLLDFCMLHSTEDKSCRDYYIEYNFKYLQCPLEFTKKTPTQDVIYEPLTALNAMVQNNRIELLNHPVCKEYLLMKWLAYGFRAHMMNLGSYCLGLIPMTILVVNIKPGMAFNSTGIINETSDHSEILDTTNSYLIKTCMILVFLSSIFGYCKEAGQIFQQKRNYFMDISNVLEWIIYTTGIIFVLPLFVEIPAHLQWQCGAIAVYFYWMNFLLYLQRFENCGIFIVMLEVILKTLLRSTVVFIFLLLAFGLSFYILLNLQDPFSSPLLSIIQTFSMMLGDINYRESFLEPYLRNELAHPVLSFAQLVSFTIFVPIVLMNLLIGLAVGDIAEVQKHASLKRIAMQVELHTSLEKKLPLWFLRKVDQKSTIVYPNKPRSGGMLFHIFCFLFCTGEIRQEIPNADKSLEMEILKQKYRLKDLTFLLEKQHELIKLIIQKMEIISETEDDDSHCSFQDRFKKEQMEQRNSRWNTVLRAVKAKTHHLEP

On to `CC(C)=CCC/C(C)=C/CNC(=O)C1CC1` [NGCC, N-geranylcyclopropylcarboxamide], for which the “activation of ASIC1a homomeric channels” value on mASIC1a was “not sensitive”. Also, the “inward current in cells expressing hTRPV1” value on hTRPV1 [1] is reported as “triggered an inward current”. Moreover, the “effect on NaCl taste in human sensory studies” value with NaCl taste perception is “significant enhancement in NaCl taste”. For the same molecule, the EC50 on hTRPV1 [2] (hTRPV1-expressing HEK293T cells, Hill fit) was 115 µM and ~115 µM. In addition, the “increase in [Ca2+]i relative to capsaicin” value at hTRPV1 [2] (hTRPV1-expressing cells) is reported as “significantly smaller increase”. The “inward current in hTRPA1-expressing cells” value at hTRPA1 (AITC 100 µM, holding -80 mV) is reported as “induced an inward current”. At hTRPA1 (same cell), the “amplitude of current compared with AITC (100 µM)” value is “bigger than that of AITC”.
